US11912723B2, “KRAS modulators and uses thereof” (Quanta Therapeutics, Inc., priority 2022, dated 2024)

Assays:
KRAS G12V/RAF1 = target: T1, KRAS G12V/RAF1 (Homo sapiens, UniProt P01116, G12V); assay: Protein-protein interaction (PPI) HTRF assay KRAS G12V/RAF1; format: binding; settings: KRASG12V/RAF1
T1 construct: KRAS (1-169) proteins were expressed in E. coli at 18° C; His6-MBP (N, cleaved yes); made in house; host or cells: E. coli
Description: (§1) Biotinylated KRAS wt and KRAS G12DNV proteins were expressed and purified in conditions similar to those previously reported (Tran, et al., 2021) (Zhang, et al., 2020). Briefly, KRAS (1-169) proteins were expressed in E. coli at 18° C. with an upstream TEV cleavage site (ENLFYQS) followed an Avi tag sequence ([…]). KIRAS expression constructs contained both a His6 and maltose-binding protein (MBP) tags at the N-terminus for Ni-NTA column purification prior to overnight TEV cleavage and MBP column purification. The avi-tagged NRAS expression construct contained both a His6 tag and SUMO cleavage sige at the N-terminus for Ni-NTA column purification followed by His-ULP1 digestion overnight. All avi-tagged RAS proteins were dialyzed into buffer containing ATP, biotin, and BirA followed by purification over a second Ni-NTA column and then run over a size exclusion HiLoad™ 26/600 Superdex™ column in 20 mM HEPES, pH 7.5, 300 mM NaCl, 5 mM MgCl2, and 1 mM TCEP. Fractions containing the protein of interest were pooled, concentrated, and confirmed by intact mass spectrometry. To prepare ‘GTP’ loaded KRAS and NRAS, biotinylated KRAS or NRAS was nucleotide exchanged from GDP-bound protein to GppNHp-bound (Jena Biosciences, NU-401-50) protein in the presence of alkaline phosphatase and excess GppNHp as previously described and the resulting nucleotide content was confirmed by HPLC reverse phase analytical chromatography (Donohue, et al., 2019) (Tran, et al., 2021).
(§2) His-tagged RAF1 (52-131) was similarly expressed in E. coli at 18° C. overnight with an upstream TEV cleavage site. His-tagged RAF1 expression construct contained both a His6 and MBP tags at the N-terminus for Ni-NTA column purification followed by MBP-tagged TEV digestion overnight. RAF1 protein samples were further purified over a MBP column followed by a Ni-NTA column and a second MBP column. The fractions containing the protein of interest were pooled, concentrated, and further purified over a HiLoad™ 16/600 Superdex™ 75 pg size exclusion column into 20 mM HEPES, pH8.0, 200 mM NaCl, 5 mM TCEP.
(§3) When RAS proteins are in the active GTP-bound conformation, they bind the effector protein RAF1 at the N-terminus Ras-binding domain (RBD, residues 52-131) (Tran, et al., 2021). Homogenous time resolved fluorescence (HTRF) was used to monitor the interaction between wt or mutant KRAS and RAF1 or wt NRAS and RAFT. Compounds were assayed in the presence of KRAS G12D/V and RAF1 versus wt KRAS to assess activity against mutant and w.t. KRAS. Similarly, compounds were then assayed in the presence of w.t. NRAS and RAF1 to assess RAS isoform selectivity. In all assay formats, His-tagged RAF1 protein was incubated with the HTRF donor, anti-6His Tb Cryptate gold (Cisbio 61DB10RDF), and biotinylated RAS proteins were incubated with the HTRF acceptor, streptavidin-d2 (CisBio 610SADLA). The intensity of the fluorescence signal emitted is proportional to binding between the two proteins. The donor solution was prepared by mixing 16 nM His-tagged RAF1 in protein dilution buffer with 1:100 anti-6His Tb cryptate in PPI-Terbium detection buffer. 16 nM biotinylated RAS protein was diluted into protein dilution buffer (50 mM Tris-HCl pH 7.5, 150 mM NaCl, 0.1 mM MgCl2, 1 mM TCEP, 0.005% Tween20) and mixed with 1:2000 Streptavidin-d2 diluted in PPI-Terbium detection buffer (CisBio 61DB10RDF). 50× compound in DMSO was mixed with 16 nM KRAS-acceptor solution and incubated for 30 minutes at room temperature. After compound pre-incubation with KRAS, the RAF1 donor solution was added to the KRAS-acceptor solution and incubated for 1 hour at room temperature. The fluorescence signal emitted was monitored at 665 nm and 615 nm using an Envision multimode plate reader. The HTRF ratio (665/615) was calculated and normalized to 0% inhibition in the absence of compound and 100% inhibition in the presence of untagged RAF1 protein. […]

[1] = target: T2, GST-tagged KRAS G12D (2-169) (Homo sapiens, UniProt P01116, G12D); assay: Nucleotide exchange assay (NEA), HTRF of SOS-mediated GTP-DY-647P1 binding; format: biochemical; settings: 5 nM GST-KRAS G12D, 20 nM SOScat, 150 nM GTP; compound 1 h at RT
T2 construct: GST-tagged KRAS^G12D (2-169, Reaction Biology, MSC-11-539); purchased Reaction Biology MSC-11-539 (KRAS G12D); MSC-11-502 (SOS1cat)
Procedure, shortened: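 After 1 h RT preincubation of compound with KRAS, SOS1cat (20 nM final) and fluorescent GTP analog (150 nM) were added to 5 nM KRAS; HTRF (anti-GST Tb donor) followed at RT for up to 90 min. % inhibition relative to DMSO and no-SOS1 blank, 4-parameter curve fit.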

wtNRAS/RAF1 = target: T3, wtNRAS/RAF1 (Homo sapiens, UniProt P01111); assay: Protein-protein interaction (PPI) HTRF assay w.t.NRAS/RAF1; format: binding
T3 construct: (1-169); His6-SUMO (N, cleaved yes); made in house; host or cells: E. coli (printed for the KRAS and RAF1 constructs; not explicitly for NRAS)
Description: as §1, §2, §3

wtKRAS/RAF1 = target: T4, wtKRAS/RAF1 (Homo sapiens, UniProt P01116); assay: Protein-protein interaction (PPI) HTRF assay w.t.KRAS/RAF1; format: binding
T4 construct: KRAS (1-169) proteins were expressed in E. coli at 18° C; His6-MBP (N, cleaved yes); made in house; host or cells: E. coli
Description: as §1, §2, §3

KRAS G12D/RAF1 = target: T5, KRAS G12D/RAF1 (Homo sapiens, UniProt P01116, G12D); assay: Protein-protein interaction (PPI) HTRF assay KRAS G12D/RAF1; format: binding; settings: KRAS G12D/RAF1, GppNHp-loaded KRAS; 30 minutes pre-incubation
T5 construct: KRAS (1-169) proteins were expressed in E. coli at 18° C; His6-MBP (N, cleaved yes); made in house; host or cells: E. coli
Procedure, shortened: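 IC50 values come from the 665/615 HTRF ratio, scaled between no-compound (0% inhibition) and untagged RAF1 (100%). GppNHp-exchanged, biotinylated RAS (1-169) solution at 16 nM met compound for 30 min at room temperature. Then 16 nM His-tagged RAF1 (52-131) donor solution was added and incubated 1 h.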

[2] = system: AGS (KRAS G12D) cells, phospho-ERK; assay: pERK In Cell Western (ICW) assay (Method B); format: cell-based; settings: Homo sapiens, 3 hours
Description: pERK ICW is a high throughput screening assay to evaluate the cellular potency of mutant KRAS small molecule inhibitors. KRAS mutant cell line AGS (KRAS^G12D) were purchased from ATCC and maintained in DMEM and RPMI medium supplemented with 10% fetal bovine serum and Penicillin/Streptomycin.
Cells grown in exponential phase were trypsinized, resuspended in fresh media, and viable cells were counted using a cell counter with Trypan Blue (BioRad TC20). Cells were seeded into 384-well plate (Greiner 781091) at density of 5,000 cells/well for AGS and allowed to grow overnight in a 37° C. CO2 incubator. The next day, compounds were dispensed into wells with a ½ log, 10-point serial dilution and top concentration of 10 μM using Tecan D300e dispenser and incubated for 3 hours in a 37° C. CO2 incubator. Cells were then fixed with paraformaldehyde (Electron Microscopy Sciences, 15710, 4% final concentration) for 30 min, permeabilized with wash buffer (1×PBS+0.1% Triton X-100) for 30 min and blocked with Odyssey blocking buffer (Li—COR 927-70001) for 1 hour, all at room temperature (RT). Phospho-ERK antibody (CST 4370L) was diluted 1:500 in Odyssey blocking+0.2% Tween 20 and incubated with cells overnight at 4° C. The next day, plates were washed 5× with wash buffer, incubated with IRDye 800 CW, Goat anti-Rabbit secondary antibody (Li—COR 926-32211, 1:500) and DRAQ5 (CST 4084L, 1:5,000) diluted in Odyssey blocking+0.2% Tween 20 for 1 hour, washed 5×, and imaged on an Odyssey CLx imaging system.
For data analysis, signal intensities from 800 (phosphor-ERK) and 700 (DRAQ5) channels were extracted, and phospho-ERK signals were normalized to DRAQ5 signals for each well and percent of DMSO control values were computed. Data were then imported into Graphpad Prism to compute half-maximal inhibitory concentrations (IC50) using a 4-parameter variable slope model. Z-factor for each plate was computed from signals derived from wells treated with either DMSO or 5 μM of Trametinib. AGS pERK ICW (Method B) IC50 (uM) values of selected compounds are depicted in Table 2 with compounds having a value 0.001 uM to 0.01 uM as ++++; >0.01 uM to 0.1 uM as +++; >0.1 uM to 1 uM as ++; 1 uM to 10 uM as + and >10 uM as NA.

T2 sequence (P01116 2-169 isoform P01116-2 G12D): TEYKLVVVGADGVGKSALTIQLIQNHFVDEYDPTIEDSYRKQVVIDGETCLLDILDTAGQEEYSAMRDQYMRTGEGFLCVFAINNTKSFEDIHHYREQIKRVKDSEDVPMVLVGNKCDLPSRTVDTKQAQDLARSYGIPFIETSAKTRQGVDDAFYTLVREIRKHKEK
T3 sequence (P01111 1-169): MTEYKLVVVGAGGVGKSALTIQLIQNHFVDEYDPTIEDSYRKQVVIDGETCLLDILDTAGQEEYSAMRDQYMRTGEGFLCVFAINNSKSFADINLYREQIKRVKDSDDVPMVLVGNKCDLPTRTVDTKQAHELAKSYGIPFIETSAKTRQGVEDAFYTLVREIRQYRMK
T1 sequence (P01116 1-169 isoform P01116-2 G12V): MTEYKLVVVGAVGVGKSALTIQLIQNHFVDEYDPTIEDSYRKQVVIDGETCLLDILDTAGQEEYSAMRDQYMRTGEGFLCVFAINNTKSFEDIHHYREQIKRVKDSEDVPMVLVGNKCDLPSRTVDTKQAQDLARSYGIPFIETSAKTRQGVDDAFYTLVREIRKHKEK
T4 sequence (P01116 1-169 isoform P01116-2): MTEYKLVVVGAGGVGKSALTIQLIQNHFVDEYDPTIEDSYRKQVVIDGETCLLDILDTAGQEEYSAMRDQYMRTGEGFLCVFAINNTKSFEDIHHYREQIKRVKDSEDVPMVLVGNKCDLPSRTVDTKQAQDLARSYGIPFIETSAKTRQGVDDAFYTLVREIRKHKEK
T5 sequence (P01116 1-169 isoform P01116-2 G12D): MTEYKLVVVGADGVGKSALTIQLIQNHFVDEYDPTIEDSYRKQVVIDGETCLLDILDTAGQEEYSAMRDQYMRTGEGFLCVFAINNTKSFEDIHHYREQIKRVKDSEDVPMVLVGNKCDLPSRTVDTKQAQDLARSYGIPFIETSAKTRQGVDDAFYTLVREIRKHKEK

Compound	IC50 (KRAS G12V/RAF1) [µM]	IC50 [1] [µM]	IC50 (wtNRAS/RAF1) [µM]	IC50 (wtKRAS/RAF1) [µM]	IC50 (KRAS G12D/RAF1) [µM]	IC50 [2] [µM]
C[C@@]1(O)CCCN(c2nc(OC[C@@]34CCCN3C[C@H](F)C4)nc3c2COC2(CCc4c(Cl)cccc42)C3)C1 (stereo partly drawn) [Compound 23, (3R)-1-(4-chloro-2′-(((2R,7aS)-2-fluorotetrahydro-1H-pyrrolizin-7a(5H)-yl)methoxy)-2,3,5′,8′-tetrahydrospiro[indene-1,7′-pyrano[4,3-d]pyrimidin]-4′-yl)-3-methylpiperidin-3-ol]	10 to 100	1 to 20	> 100	> 100	10 to 100	–
O=C1NC(=O)C2(CCCN(c3nc(OC[C@@]45CCCN4C[C@H](F)C5)nc4c3COC3(CCc5c(Cl)cccc53)C4)C2)N1 (stereo partly drawn) [Compound 24, 9-[4′-chloro-2-[[(2R,8S)-2-fluoro-1,2,3,5,6,7-hexahydropyrrolizin-8-yl]methoxy]spiro[5,8-dihydropyrano[4,3-d]pyrimidine-7,1′-indane]-4-yl]-1,3,9-triazaspiro[4.5]decane-2,4-dione]	10 to 100	0.1 to 1	> 100	10 to 100	10 to 100	–
CN1Cc2c(nc(OC[C@@]34CCCN3C[C@H](F)C4)nc2N2CCC[C@]3(C2)NC(=O)NC3=O)C[C@]12CCc1c(F)cccc12 [Compound 68, (5R)-9-[(7S)-4′-fluoro-2-[[(2R,8S)-2-fluoro-1,2,3,5,6,7-hexahydropyrrolizin-8-yl]methoxy]-6-methyl-spiro[5,8-dihydropyrido[4,3-d]pyrimidine-7,1′-indane]-4-yl]-1,3,9-triazaspiro[4.5]decane-2,4-dione]	–	0.01 to 0.1	–	–	–	> 10
CN1Cc2c(nc(OC[C@@]34CCCN3C[C@H](F)C4)nc2N2CCC[C@]3(C2)NC(=O)NC3=O)C[C@]12CCc1cccc(Cl)c12 [Compound 70, (5R)-9-[(7S)-7′-chloro-2-[[(2R,8S)-2-fluoro-1,2,3,5,6,7-hexahydropyrrolizin-8-yl]methoxy]-6-methyl-spiro[5,8-dihydropyrido[4,3-d]pyrimidine-7,1′-indane]-4-yl]-1,3,9-triazaspiro[4.5]decane-2,4-dione]	–	0.01 to 0.1	–	–	–	1 to 10
